Tested on: M14
Assay: cells
Conditions: Homo sapiens

`FC(F)(F)c1nc(Cl)c2sc(=S)n(-c3ccccc3)c2n1` [Compound 3b, 7-chloro-3-phenyl-5-(trifluoromethyl)[1, 3]thiazolo[4,5-d]pyrimidine-2(3H)-thione] was tested, and the GI50 (M14, read-out: log GI50 (converted)) was 2 µM and the CC50 (M14, read-out: log LC50 (converted)) was 8.32 µM.
